The results in this text go back to PMC8281026, “Peptide Based Inhibitors of Protein Binding to the Mitogen-Activated Protein Kinase Docking Groove” (Frontiers in Molecular Biosciences, 2021).

In one experiment the target is T1, p38α (Homo sapiens, UniProt Q16539).
T1 construct: made in house; host or cells: Escherichia coli
In words: Fluorescence polarization competitive binding assay, p38. The conditions noted are these: competitive FP titration against 50 nM Cf-RHDF (gives Ki, used as proxy of Kd); 20 mM Tris pH 8.0, 100 mM NaCl, 0.05% Brij35, 2 mM TCEP; at least 3 independent measurements; read-out: Kd (µM) ± sd, p38. Here is the method:
(§1) ERK2 and p38 proteins used for fluorescence polarization (FP) measurements were recombinantly expressed in Escherichia coli and purified according to Garai et al. The purified and concentrated proteins were subjected to fluorescence polarization based binding measurements ([Garai et al., 2012]) using 50 nM Cf-labeled Cf-RHDF (Cf-SLQRKKPPWLKLDIPSC) and the data was analyzed using OriginPro. For direct measurements the concentration of ERK2 and p38 protein was increased, and for competitive measurements the protein-labeled peptide complex at 60–80% complex formation was titrated with increasing concentration of unlabeled peptide and the amount of the protein-labeled peptide complex (fraction bound) was determined using Cytation 3 (BioTek Instruments) plate reader in 384-well black plates. The direct measurement gives the Kd between the labeled peptide and the MAPK, while the competitive titration experiment with the unlabeled peptide gives the Ki for the unlabeled peptide competing off the labeled peptide, which is a good proxy for the binding affinity of the unlabeled peptide to the protein. All of the FP measurements were performed in assay buffer: 20 mM Tris (pH 8.0), 100 mM NaCl, 0.05% Brij35, and 2 mM TCEP. Fraction bound of the labeled ligand was calculated based on direct binding and competitive binding equations described in ([Roehrl et al., 2004]; [Simon et al., 2020]). The Kd and Ki values were obtained by fitting the FP data, measured in triplicates, to a direct binding equation or to a competitive binding equation using the OriginPro software.
Background: In fluorescence polarisation assays a small probe gives low polarisation when free and higher when bound to something large.

The next experiment addresses T2, ERK2 (Homo sapiens, UniProt P28482).
T2 construct: made in house; host or cells: Escherichia coli
In words: Fluorescence polarization competitive binding assay, ERK2. The note with it: for Kd: competitive FP titration against 50 nM Cf-RHDF (gives Ki, used as proxy of Kd), 20 mM Tris pH 8.0, 100 mM NaCl, 0.05% Brij35, 2 mM TCEP, at least 3 independent measurements, read-out: Kd (µM) ± sd, ERK2. Here is the method:
as §1

Experiment [1] has as its system HEK-293T cells. In words: Cellular uptake by fluorescence microscopy. The note with it: for cellular uptake: data is not shown; for internalization into HEK-293T cells: fluorescence microscopy, serum-free medium, 37 °C, up to 3 h, Figure 1. In kind it is cell-based. Here is the method: (§2) The cellular uptake of the fluorescent labeled peptide into HEK-293T cells were analyzed by fluorescence microscopy (Cytation 3, BioTek Instruments) and two peptides were further examined by confocal laser scanning microscopy (Zeiss LSM-710 system). Cells were incubated with peptides in serum-free medium (DMEM) for 3 h at 37 °C and then washed twice with 200 μl of serum-free medium before analyzing.

A further experiment deals with p38 (pp-p38α) (Homo sapiens, UniProt Q16539). In words: In vitro MAPK activity assay (Nanobit luciferase protein fragment complementation), p38. It counts as biochemical. The note with it: 1 nM pp-p38α, 2 mM ATP, 50 mM HEPES pH 7.5; initial rates, luminescence; at least 3 independent measurements. Here is the method: (§3) In order to determine the inhibitory effect of RHDF-peptides, we used a protein fragment complementation based assay. […] Upon MAPK activity, these two proteins bind and form the active luciferase enzyme oxidizing its substrate (coelenterazine) and ultimately giving some luminescent signal. The initial rates of the reactions were calculated and were compared for the applied inhibitor’s concentration, and then EC50 values were determined using dose response fitting (OriginPro) (see in Supplementary Figure S26). Reactions were carried out in a buffer of 50 mM HEPES, pH 7.5, 100 mM NaCl, 5 mM MgCl2, 0.05% IGEPAL, 50 μM Coelenterazine h, 5% glycerol, 2 mM DTT, 1mM TCEP, 0.5 mg/ml BSA containing 1 nM active ERK2 (pp-ERK2) or p38 (pp-p38α) and were started by the addition of 2 mM ATP. Luminescence was measured using a luminescence plate reader (Cytation 3, BioTek) in white 96-well plates.

Another experiment concerns the target active ERK2 (pp-ERK2) (Homo sapiens, UniProt P28482). In words: In vitro MAPK activity assay (Nanobit luciferase protein fragment complementation), ERK2. It counts as biochemical. The note with it: for EC50: 1 nM pp-ERK2, 2 mM ATP, 50 mM HEPES pH 7.5, initial rates, luminescence, at least 3 independent measurements; for EC50 increase relative to peptide 8: ratio of EC50 values, compared with peptide 8. Here is the method:
as §3

Experiment [2] concerns HEK-293T cells. Briefly: Intracellular distribution by confocal laser scanning microscopy. It counts as cell-based. The note with it: 10 and 20 µM, 3 h. How it is done:
as §2

*1 amine or outer side, *2 acyl side, *3 side chain or, on linkers, in order; H or OH if unused. Where a SMILES comes first, the peptide text is derived from it. Bridges are numbered along the chain shown (N, C = ends). The star is where a group is joined. Dabcyl = CN(C)c1ccc(N=Nc2ccc(C(=O)*)cc2)cc1; TBMB = c1c(C[*:1])cc(C[*:3])cc1C[*:2]; X1 = O=C(C[*:2])[*:1]

T2 sequence (P28482 whole entry, species assumed): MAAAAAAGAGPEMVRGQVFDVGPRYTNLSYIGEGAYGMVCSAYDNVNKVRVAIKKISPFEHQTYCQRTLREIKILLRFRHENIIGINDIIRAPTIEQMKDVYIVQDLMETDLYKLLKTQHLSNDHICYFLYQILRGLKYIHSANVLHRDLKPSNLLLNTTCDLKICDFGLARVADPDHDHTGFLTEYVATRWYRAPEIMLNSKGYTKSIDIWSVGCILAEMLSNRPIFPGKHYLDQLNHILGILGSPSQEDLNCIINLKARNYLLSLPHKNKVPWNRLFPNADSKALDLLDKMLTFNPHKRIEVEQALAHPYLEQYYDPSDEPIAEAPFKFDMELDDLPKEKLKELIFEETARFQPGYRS
Chain of active ERK2 (pp-ERK2) (P28482 whole entry, the tested form may be a part): as the sequence (P28482 whole entry, species assumed) above
T1 sequence (Q16539 whole entry): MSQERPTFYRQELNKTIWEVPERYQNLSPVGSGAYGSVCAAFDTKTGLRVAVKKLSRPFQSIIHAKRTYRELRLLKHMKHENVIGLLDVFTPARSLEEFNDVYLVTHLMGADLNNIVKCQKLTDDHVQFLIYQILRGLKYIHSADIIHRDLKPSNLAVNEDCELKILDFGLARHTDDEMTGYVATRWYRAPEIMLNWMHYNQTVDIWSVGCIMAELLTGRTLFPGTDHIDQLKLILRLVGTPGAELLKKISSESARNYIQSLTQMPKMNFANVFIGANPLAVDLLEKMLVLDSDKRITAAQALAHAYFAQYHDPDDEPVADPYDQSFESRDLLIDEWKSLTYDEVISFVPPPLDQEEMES
Chain of p38 (pp-p38α) (Q16539 whole entry, the tested form may be a part): as the sequence (Q16539 whole entry) above

Consider `CC(C)C[C@@H]1NC(=O)[C@H](CCCNC(=N)N)NC(=O)[C@H](CC(C)C)NC(=O)[C@@H]2CSCc3cc(cc(c3)CSC[C@H](NC(=O)[C@H](CCCNC(=N)N)NC(=O)[C@H](CCCNC(=N)N)NC(=O)[C@H](CCCNC(=N)N)NC(=O)c3ccc(N=Nc4ccc(N(C)C)cc4)cc3)C(=O)N3CCC[C@H]3C(=O)N3CCC[C@H]3C(=O)N[C@@H](Cc3c[nH]c4ccccc34)C(=O)N2)CSC[C@@H](C(N)=O)NC(=O)[C@H](CCCNC(=N)N)NC(=O)[C@H](CCCNC(=N)N)NC(=O)[C@H](CC(=O)O)NC1=O` [compound 17] (Dabcyl-RRRCPPWCLRLDRRC-NH2; linker 4-8-15 via TBMB), for which the Kd (as a rule, the free concentration of one partner at which half of the binding sites on the other are occupied at equilibrium, for simple one-to-one binding) was 3.2 ± 0.7 µM on p38α and 4.5 ± 0.6 µM at ERK2.
Consider “H-RRPPWLRLDI-NH2 [compound 5, H-RRPPWLRLDI-NH 2]”, for which, in the experiment on HEK-293T cells [1], the cellular uptake result is “poor”.
For the molecule “H-RRPPWLRLDIRR-NH2 [compound 6, H-RRPPWLRLDIRR-NH 2]”, the EC50 (usually the concentration that produces a half-maximal response) on p38 (pp-p38α) amounted to 3.7 µM. Further, on active ERK2 (pp-ERK2), the EC50 is 12.9 µM and the “EC50 increase relative to peptide 8” value stood at 3.7 times. The “binding enhancement by extension of the C-terminus by two Arg” value at ERK2 (ERK2 Kd, compared with peptide 5) turned out to be 3.5 times.
As to `CC[C@H](C)[C@@H]1NC(=O)[C@H](CC(=O)O)NC(=O)[C@H](CC(C)C)NC(=O)[C@H](CCCNC(=N)N)NC(=O)[C@H](CC(C)C)NC(=O)[C@H](Cc2c[nH]c3ccccc23)NC(=O)[C@@H]2CCCN2C(=O)[C@@H]2CCCN2C(=O)[C@@H](NC(=O)[C@H](CCCNC(=N)N)NC(=O)[C@H](CCCNC(=N)N)NC(=O)[C@H](CCCNC(=N)N)NC(=O)c2ccc(N=Nc3ccc(N(C)C)cc3)cc2)CCCCNC(=O)CSC[C@@H](C(N)=O)NC(=O)[C@H](CCCNC(=N)N)NC(=O)[C@H](CCCNC(=N)N)NC1=O` [compound 15] (Dabcyl-RRRKPPWLRLDIRRC-NH2; linker 4-15 via X1), the results for the Kd on p38α and on ERK2 were 1.2 ± 0.6 µM and 1.5 ± 0.3 µM, respectively.
In the case of `CC[C@H](C)[C@H](NC(=O)[C@H](CC(=O)O)NC(=O)[C@H](CC(C)C)NC(=O)[C@H](CCCCN)NC(=O)[C@H](CC(C)C)NC(=O)[C@H](Cc1c[nH]c2ccccc12)NC(=O)[C@@H]1CCCN1C(=O)[C@@H]1CCCN1C(=O)[C@H](CCCCN)NC(=O)[C@H](CCCCN)NC(=O)[C@H](CCCNC(=N)N)NC(=O)[C@H](CCC(N)=O)NC(=O)[C@H](CC(C)C)NC(=O)[C@@H](N)CO)C(=O)N1CCC[C@H]1C(=O)N[C@@H](CO)C(=O)N[C@@H](CS)C(N)=O` [compound 1, H-SLQRKKPPWLKLDIPSC-NH 2], in the experiment with HEK-293T cells [1], the cellular uptake result is “poor”.
Take Cf- RRRPPWLRLDIRR-NH 2 [compound 9]: the intracellular distribution result with HEK-293T cells [2] is “punctuated”. Also, the “internalization into HEK-293T cells” value in the experiment on HEK-293T cells [1] was “time and concentration dependent internalization”.
Regarding `CC(C)C[C@@H]1NC(=O)[C@H](CCCNC(=N)N)NC(=O)[C@H](CC(C)C)NC(=O)[C@@H](NC(=O)[C@H](Cc2c[nH]c3ccccc23)NC(=O)[C@@H]2CCCN2C(=O)[C@@H]2CCCN2C(=O)[C@H](CCCNC(=N)N)NC(=O)[C@H](CCCNC(=N)N)NC(=O)[C@H](CCCNC(=N)N)NC(=O)c2ccc(N=Nc3ccc(N(C)C)cc3)cc2)CCCCNC(=O)CSC[C@@H](C(N)=O)NC(=O)[C@H](CCCNC(=N)N)NC(=O)[C@H](CCCNC(=N)N)NC(=O)[C@H](CC(=O)O)NC1=O` [compound 12] (Dabcyl-RRRPPWKLRLDRRC-NH2; linker 7-14 via X1), the values for the Kd at p38α and on ERK2 were 1.7 ± 0.4 µM and 4.1 ± 0.3 µM, respectively.
Consider Cf-RRPPWLRLDIRR-NH 2 [compound 7], for which the “internalization into HEK-293T cells” value in the experiment with HEK-293T cells [1] was “time and concentration dependent internalization”.
For the molecule `CC(C)C[C@@H]1NC(=O)[C@H](CCCNC(=N)N)NC(=O)[C@H](CC(C)C)NC(=O)[C@H](Cc2c[nH]c3ccccc23)NC(=O)[C@@H]2CCCN2C(=O)[C@@H]2CCCN2C(=O)[C@H](CCCNC(=N)N)NC(=O)[C@H](CCCNC(=N)N)NC(=O)[C@H](CCCNC(=N)N)NC(=O)[C@@H](NC(=O)c2ccc(N=Nc3ccc(N(C)C)cc3)cc2)CCCCNC(=O)CSC[C@@H](C(N)=O)NC(=O)[C@H](CCCNC(=N)N)NC(=O)[C@H](CCCNC(=N)N)NC(=O)[C@H](CC(=O)O)NC1=O` [compound 14] (Dabcyl-KRRRPPWLRLDRRC-NH2; linker 1-14 via X1), the Kd at p38α is 2.1 ± 0.6 µM; at ERK2, 5.1 ± 0.4 µM.
As to `CC(C)C[C@@H]1NC(=O)[C@H](CCCNC(=N)N)NC(=O)[C@H](CC(C)C)NC(=O)[C@H](Cc2c[nH]c3ccccc23)NC(=O)[C@@H]2CCCN2C(=O)[C@@H]2CCCN2C(=O)[C@@H](NC(=O)[C@H](CCCNC(=N)N)NC(=O)[C@H](CCCNC(=N)N)NC(=O)[C@H](CCCNC(=N)N)NC(=O)c2ccc(N=Nc3ccc(N(C)C)cc3)cc2)CCCCNC(=O)CSC[C@@H](C(N)=O)NC(=O)[C@H](CCCNC(=N)N)NC(=O)[C@H](CCCNC(=N)N)NC(=O)[C@H](CC(=O)O)NC1=O` [compound 13] (Dabcyl-RRRKPPWLRLDRRC-NH2; linker 4-14 via X1), the Kd on p38α came to 1 ± 0.7 µM; at ERK2, 1 ± 0.2 µM.
As to “H-KKPPWLKLDI-NH2 [compound 4, H-KKPPWLKLDI-NH 2]”, in the experiment with HEK-293T cells [1], the cellular uptake result is given as “poor”. In addition, the “binding decrease relative to the original peptide” value at ERK2 (ERK2 Kd, compared with original peptide 1) is 8.3 times.
With `CC[C@H](C)[C@H](NC(=O)[C@H](CC(=O)O)NC(=O)[C@H](CC(C)C)NC(=O)[C@H](CCCNC(=N)N)NC(=O)[C@H](CC(C)C)NC(=O)[C@H](Cc1c[nH]c2ccccc12)NC(=O)[C@@H]1CCCN1C(=O)[C@@H]1CCCN1C(=O)[C@H](CCCNC(=N)N)NC(=O)[C@H](CCCNC(=N)N)NC(=O)[C@H](CCCNC(=N)N)NC(=O)c1ccc(/N=N/c2ccc(N(C)C)cc2)cc1)C(=O)N[C@@H](CCCNC(=N)N)C(=O)N[C@@H](CCCNC(=N)N)C(=O)N[C@@H](CCCCN)C(N)=O` [compound 10, Dabcyl-RRRPPWLRLDIRRK-NH 2], the “EC50 increase relative to peptide 8” value on active ERK2 (pp-ERK2) is on record as 2.4 times.
As for `CC[C@H](C)[C@@H]1NC(=O)[C@H](CC(=O)O)NC(=O)[C@H](CC(C)C)NC(=O)[C@H](CCCNC(=N)N)NC(=O)[C@H](CC(C)C)NC(=O)[C@@H]2CSCc3cc(cc(c3)CSC[C@H](NC(=O)[C@H](CCCNC(=N)N)NC(=O)[C@H](CCCNC(=N)N)NC(=O)[C@H](CCCNC(=N)N)NC(=O)c3ccc(N=Nc4ccc(N(C)C)cc4)cc3)C(=O)N3CCC[C@H]3C(=O)N3CCC[C@H]3C(=O)N[C@@H](Cc3c[nH]c4ccccc34)C(=O)N2)CSC[C@@H](C(N)=O)NC(=O)[C@H](CCCNC(=N)N)NC(=O)[C@H](CCCNC(=N)N)NC1=O` [compound 16] (Dabcyl-RRRCPPWCLRLDIRRC-NH2; linker 4-8-16 via TBMB), the Kd was found to be 1.4 ± 0.4 µM on p38α and 0.9 ± 0.2 µM on ERK2.
As to “H-RRRPPWLRLDIRR-NH2 [compound 8, H-RRRPPWLRLDIRR-NH 2]”, the EC50 was 1.3 µM on p38 (pp-p38α) and 3.5 µM at active ERK2 (pp-ERK2). The Kd at p38α is 1.4 ± 0.3 µM.
